Experiment: Inhibition of NS5A in HCV genotype 1b assessed as decrease in viral replication

- EC50: 4 pM
SMILES: COC(=O)N[C@H](C(=O)N1CCC[C@H]1c1nc(-c2ccc(-c3ccc(-c4c[nH]c([C@@H]5CCCN5C(=O)[C@@H](NC(=O)OC)C(C)C)n4)cc3)cc2)c[nH]1)C(C)C [BMS-790052]
